# Reference: US4668514A, “Penicillin derivatives” (Taiho Pharmaceutical Company Limited, priority 1983, dated 1987)
# Target: penicillinase (β-lactamase) derived from Bacillus sp.
# Assay: β-lactamase inhibitory activity measured by microiodometry using penicillin G as substrate
# Assay type: biochemical
# Details: read-out: 50% Inhibitory Concentration
# Experimental: Test for β-lactamase inhibitory activity
# The inhibitory activity against penicillinase (β-lactamase) derived from Bacillus sp. was measured by microiodometry Tanpakushitsu Kakusan Koso (Protein Nucleic Acid Enzyme), vol. 23, No. 5, pp 391 to 400 (1978) using penicillin G as a substrate.
row,SMILES,IC50 [nM]
1,"CCOC(=O)c1c(-c2ccccc2)nnn1C[C@@]1(C)[C@H](C(=O)O)N2C(=O)C[C@H]2S1(=O)=O [Compound 45, sodium 2β-(5-ethoxycarbonyl-4-phenyl-1,2,3-triazol-1-yl)methyl-2α-methylpenam-3α-carboxylate 1,1-dioxide]",100
2,"C[C@]1(Cn2nnc(COCc3ccccc3)c2COCc2ccccc2)[C@H](C(=O)O)N2C(=O)C[C@H]2S1(=O)=O [Compound 49, 2β-(4,5-dibenzyloxymethyl-1,2,3-triazol-1-yl)methyl-2α-methylpenam-3α-carboxylic acid 1,1-dioxide]",1500
3,"CCCCc1cnnn1C[C@@]1(C)[C@H](C(=O)O)N2C(=O)C[C@H]2S1(=O)=O [Compound 9, sodium 2β-(5-n-butyl-1,2,3-triazol-1-yl)methyl-2α-methylpenam-3α-carboxylate 1,1-dioxide]",650
4,"C[C@]1(Cn2nnc(CO)c2CO)[C@H](C(=O)O)N2C(=O)C[C@H]2S1(=O)=O [Compound 50, sodium 2β-(4,5-dihydroxymethyl-1,2,3-triazol-1-yl)methyl-2α-methylpenam-3α-carboxylate 1,1-dioxide]",2000
5,"C[C@]1(Cn2nnc(-c3ccccc3)c2-c2ccccc2)[C@H](C(=O)O)N2C(=O)C[C@H]2S1(=O)=O [Compound 17, 2β-(4,5-diphenyl-1,2,3-triazol-1-yl)methyl-2α-methylpenam-3α-carboxylic acid 1,1-dioxide]",270
6,"C[C@]1(Cn2cc(N)nn2)[C@H](C(=O)O)N2C(=O)C[C@H]2S1(=O)=O [Compound 55, 2β-(4-amino-1,2,3-triazol-1-yl)methyl-2α-methylpenam-3α-carboxylic acid 1,1-dioxide]",700
7,"C[C@]1(Cn2cc(-c3ccccc3)nn2)[C@H](C(=O)O)N2C(=O)C[C@H]2S1(=O)=O [Compound 14, sodium 2β-(4-phenyl-1,2,3-triazol-1-yl)methyl-2α-methylpenam-3α-carboxylate 1,1-dioxide]",40
8,"CC(=O)c1cn(C[C@@]2(C)[C@H](C(=O)OCc3ccc([N+](=O)[O-])cc3)N3C(=O)C[C@H]3S2(=O)=O)nn1 [Compound 32, p-nitrobenzyl 2β-(4-acetyl-1,2,3-triazol-1-yl)methyl-2α-methylpenam-3α-carboxylate 1,1-dioxide]",120
9,"C[C@]1(Cn2cc(C(F)(F)F)nn2)[C@H](C(=O)O)N2C(=O)C[C@H]2S1(=O)=O [Compound 19, sodium 2α-methylpenam-2β-(4-trifluoromethyl-1,2,3-triazol-1-yl)methyl-3α-carboxylate 1,1-dioxide]",240
10,"COCc1cnnn1C[C@@]1(C)[C@H](C(=O)O)N2C(=O)C[C@H]2S1(=O)=O [Compound 22, sodium 2β-(5-methoxymethyl-1,2,3-triazol-1-yl)methyl-2α-methylpenam-3α-carboxylate 1,1-dioxide]",1800
11,"C[C@]1(Cn2nncc2-c2ccccc2)[C@H](C(=O)O)N2C(=O)C[C@H]2S1(=O)=O [Compound 15, sodium 2β-(5-phenyl-1,2,3-triazol-1-yl)methyl-2α-methylpenam-3α-carboxylate 1,1-dioxide]",280
12,"Cc1cnnn1C[C@@]1(C)[C@H](C(=O)O)N2C(=O)C[C@H]2S1(=O)=O [Compound 11, sodium 2β-(5-methyl-1,2,3-triazol-1-yl)methyl-2α-methylpenam-3α-carboxylate 1,1-dioxide]",240
13,"CC(=O)OCc1nnn(C[C@@]2(C)[C@H](C(=O)O)N3C(=O)C[C@H]3S2(=O)=O)c1COC(C)=O [Compound 47, sodium-2β-(4,5-diacetoxymethyl-1,2,3-triazol-1-yl)methyl-2α-methylpenam-3α-carboxylate 1,1-dioxide]",2500
14,"CCNC(=O)c1cn(C[C@@]2(C)[C@H](C(=O)O)N3C(=O)C[C@H]3S2(=O)=O)nn1 [Compound 29, sodium 2β-(4-ethylcarbamoyl-1,2,3-triazol-1-yl)methyl-2α-methylpenam-3α-carboxylate 1,1-dioxide]",20
15,"Cc1nnn(C[C@@]2(C)[C@H](C(=O)O)N3C(=O)C[C@H]3S2(=O)=O)c1C [Compound 2, sodium 2β-(4,5-dimethyl-1,2,3-triazol-1-yl)methyl-2α-methylpenam-3α-carboxylate 1,1-dioxide]",80
16,"CCOC(=O)c1nnn(C[C@@]2(C)[C@H](C(=O)O)N3C(=O)C[C@H]3S2(=O)=O)c1-c1ccccc1 [Compound 44, sodium 2β-(4-ethoxycarbonyl-5-phenyl-1,2,3-triazol-1-yl)methyl-2α-methylpenam-3α-carboxylate 1,1-dioxide]",400
17,"CCCCc1nnn(C[C@@]2(C)[C@H](C(=O)O)N3C(=O)C[C@H]3S2(=O)=O)c1CCCC [Compound 5, sodium 2β-(4,5-di-n-butyl-1,2,3-triazol-1-yl)methyl-2α-methylpenam-3α-carboxylate 1,1-dioxide]",3000
18,"C[C@]1(Cn2nnc(C(N)=O)c2C(N)=O)[C@H](C(=O)O)N2C(=O)C[C@H]2S1(=O)=O [Compound 31, sodium 2β-(4,5-dicarbamoyl-1,2,3-triazol-1-yl)methyl-2α-methylpenam-3α-carboxylate 1,1-dioxide]",130
19,"CCCCc1cn(C[C@@]2(C)[C@H](C(=O)O)N3C(=O)C[C@H]3S2(=O)=O)nn1 [Compound 8, sodium 2β-(4-n-butyl-1,2,3-triazol-1-yl)methyl-2α-methylpenam-3α-carboxylate 1,1-dioxide]",230
